From paper PMC8251916 (Chemistry (Weinheim an Der Bergstrasse, Germany), 2021)

Key:
[1] = test system: F21T-Na+ (human telomeric G-quadruplex, antiparallel); assay: FRET melting assay, human telomeric G4 in sodium buffer; format: binding; settings: 200 nM DNA, PIPER and 3 not reliable (spectral overlap)
Protocol: (§1) With the library in hand, we began our investigation into G4 stabilization by conducting a Förster resonance energy transfer (FRET) melting assay to assess DNA stabilization using the procedure outlined by De Cian et. al. ^[13] […] The sequences examined (at 200 nM) were the human telomeric G4 in potassium buffer (F21T‐K^+, mixed parallel/hybrid G4) ^[14] and sodium buffer (F21T‐Na^+, antiparallel G4), ^[15] the c‐Myc promoter G‐quadruplex (FmycT‐K^+, parallel G4), ^[16] a polymorphic G4 found in T. brucei (FEBR1T‐K^+, a mixed G4 topology), ^[6b] and a hairpin duplex DNA sequence (F10T‐K^+). Together, these sequences represent targets for therapeutic intervention to treat parasitic infections, ^[6b] or cancer. ^[1b] The topology of each sequence was confirmed independently via circular dichroism (CD, Figure S1). […]
(§2) FRET melting assays were performed to assess ligand affinity for duplex and G-quadruplex
(§3) DNA. Briefly, oligonucleotides of interest were obtained labelled at the 5’ and 3’ ends with FAM (a fluorescence donor) and TAMRA (a fluorescence quencher), respectively. In the folded state, proximity of the donor and quencher result in no observed fluorescence from FAM, since energy is transferred non-radiatively to TAMRA by FRET. As the temperature is raised and the secondary structure denatures, the fluorophores move further apart and the fluorescence signal increases. From the resulting curve, the characteristic melting temperature (Tmax, also referred to as Tm) is defined as the temperature which corresponds to the maxima of the first derivative of the normalised fluorescence signal. The change in melting temperature (ΔTm) induced by the presence of a small molecule ligand provides an indication of the ligand’s ability to stabilise the DNA structure. FRET experiments were performed according to the […]
(§4) procedure reported by De Cian and co-workers[S3] on a Stratagene MX3005P. The method consisted of holding at 25 °C for 5 min, before heating at 1 °C/min to 96 °C in 1 °C increments, […]

[2] = test system: FmycT-K+ (c-Myc promoter G-quadruplex, parallel); assay: FRET melting assay, c-Myc promoter G4; format: binding; settings: 200 nM DNA, PIPER and 3 not reliable (spectral overlap)
Protocol: as §1, §2, §3, §4

T. brucei = assay: Trypanocidal activity, alamarBlue assay; format: cell-based; settings: Trypanosoma brucei; 72 h incubation, alamarBlue fluorescence; read-out: absolute EC50 T. brucei
Protocol: (§5) Doxorubicin, suramin and miltefosine were used as control compounds.[ ^6b , ^9 ] After incubation with varied concentrations of the compounds for 72 h, cell viability was measured using either an alamarBlue™ assay (for MRC5, HeLa and T. brucei) or MTT assay (for L. major). Absolute EC50 values and selectivity indexes were then calculated from dose‐response curves (Table 2 and S14). […]
(§6) Cell culture reagents were purchased from Thermo Fisher Scientific (Waltham, MA, USA) and used as-is. The Dulbecco’s Minimal Essential Medium (DMEM) formulation contained either high glucose (4.5 g/L, catalogue number: 10569) or low glucose (1 g/L, catalogue number:
(§7) 10567). RPMI-1640 was provided without sodium pyruvate and with L-glutamine (catalogue number: 11875). Phosphate Buffered Saline (PBS) contained NaCl (9 g/L), KH2PO4 (144 mg/L) and Na2HPO4-7.H2O (795 mg/L, catalogue number: 10010049). TrypLE Express™ was provided with EDTA (458 mg/L) and without Phenol Red (catalogue number: 12604021).
(§8) MRC-5 cells (human lung fibroblasts) were grown in monolayer (37 °C, 5 % CO2 and 100 % humidity) in DMEM medium (1 g/L glucose), supplemented with 10% heat-inactivated Fetal Bovine Serum (hiFBS), 2 mM L-glutamine, 100 U / mL penicillin and […]
(§9) streptomycin. […]
(§10) Cells were cultured according to ATCC recommendations and were used for the experiments while in the exponential growth phase. […]
hiFBS. Parasites were split every other day and maintained in their experimental growth phase (below 2 million parasites per mL).
(§11) Cytotoxicity was measured through the alamarBlue® assay (Thermo Fisher Scientific).[S6,S13] Briefly, 5×10^3 MRC-5 or HeLa cells were seeded in 96-wells plates (100 µL / well) in the presence of increasing concentrations of compound. After 72 hrs of incubation at 37 °C, 20 µL of alamarBlue® solution (110 ng / ml) was added to each well and cells were reincubated for 4 hrs at 37 °C. Then, 50 µL of 3 % SDS were added to each well. The plate was incubated at 37 °C for an extra hour and then analysed by fluorescence with an Infinite F200 plate reader (TECAN Austria, GmbH). The excitation wavelength was fixed at 550 nm and the emission wavelength at 590 nm. The results are expressed as the concentration of compound that reduces

[3] = test system: F21T-K+ (human telomeric G-quadruplex, mixed parallel/hybrid); assay: FRET melting assay, human telomeric G4 in potassium buffer; format: binding; settings: 200 nM DNA, PIPER and 3 not reliable (spectral overlap)
Protocol: as §1, §2, §3, §4

[4] = test system: HeLa cervical carcinoma cells; assay: Cytotoxicity, alamarBlue assay, HeLa; format: cell-based, human; settings: Homo sapiens, HeLa; 72 h incubation, alamarBlue fluorescence; read-out: absolute EC50 HeLa
Protocol: as §5, §6, §7
MRC-5 cells (human lung fibroblasts) were grown in monolayer (37 °C, 5 % CO2 and 100 % humidity) in DMEM medium (1 g/L glucose), supplemented with 10% heat-inactivated Fetal Bovine Serum (hiFBS), 2 mM L-glutamine, 100 U / mL penicillin and […] streptomycin. HeLa (Human cervical carcinoma cell line) cells were maintained at 37 °C and 5 % CO2 in high glucose DMEM (4.5 g / L) supplemented with 10% hiFBS, 100 U / ml penicillin, […] streptomycin, 2 mM L-glutamine and non-essential aminoacids (1X).
as §10, §11

[5] = test system: Febr1T-K+ (T. brucei G-quadruplex); assay: FRET melting assay, T. brucei G4; format: binding; settings: 200 nM DNA, PIPER and 3 not reliable (spectral overlap)
Protocol: as §1, §2, §3, §4

MRC5 non-tumoral cells = assay: Cytotoxicity, alamarBlue assay, MRC5; format: cell-based, human; settings: Homo sapiens, MRC5, 72 h, 72 h incubation, alamarBlue fluorescence; read-out: absolute EC50 MRC5
Protocol: as §5, §6, §7, §8, §9, §10, §11

L. major = assay: Leishmaniacidal activity, MTT assay; format: cell-based; settings: Leishmania major; 72 h incubation, MTT absorbance; read-out: absolute EC50 L. major
Protocol: Doxorubicin, suramin and miltefosine were used as control compounds.[ ^6b , ^9 ] After incubation with varied concentrations of the compounds for 72 h, cell viability was measured using either an alamarBlue™ assay (for MRC5, HeLa and T. brucei) or MTT assay (for L. major). Absolute EC50 values and selectivity indexes were then calculated from dose‐response curves (Table 2 and S14).
Invitrogen). L. major promastigotes (MHOM/IL/80/Friedlin) were cultured at 28 °C, 5 % CO2 in modified RPMI-1640 medium (Thermo Fisher Scientific, Waltham, MA, USA) with 10% hiFBS. Parasites were split every other day and maintained in their experimental growth phase (below 2 million parasites per mL). […]
The results are expressed as the concentration of compound that reduces cell growth by 50 % versus untreated control cells (EC50) using GraphPad Prism 7 (GraphPad Software) to fit the data to a sigmoidal curve. Data are presented as the average of three independent measurements all conducted in triplicate conditions. […]
The leishmaniacidal activity of the compounds on promastigotes L. major (MHOM/IL/80/Friedlin) was carried out as previously described.[S14] Briefly, 4 × 10^6 / mL promastigotes were incubated for 72 h at 28 °C in 96-well plates (50 µL/well) in the presence of increasing concentration of compounds. Cell proliferation was determined using an MTT-based assay (Sigma-Aldrich). Thus, after the 72 h incubation, 10 µL of MTT (5 mg/ml) were added to each well and parasites were reincubated for 4 hrs at 28 °C. Then, 50 µL of 20 % SDS were added to each well. The plate was then incubated at 37°C for 4-16 hrs and analysed using an Infinite F200 plate reader (TECAN Austria, GmbH). The absorbance was measured […]
at a wavelength of 540 nm and the EC50 was calculated as described above. Data are presented as the average of three independent measurements, all conducted in triplicate conditions. […]

[6] = test system: F10T-K+ (hairpin duplex DNA); assay: FRET melting assay, hairpin duplex DNA; format: binding; settings: 200 nM DNA, PIPER and 3 not reliable (spectral overlap)
Protocol: as §1, §2, §3, §4

[7] = 5 μM ligand, 10 mM KCl, 90 mM LiCl, 10 mM Li cacodylate

SMILES | ΔTm F21T-Na+ ([1]; 10 µM ligand) [°C] | ΔTm FmycT-K+ ([2]; 10 µM ligand) [°C] | EC50 (T. brucei) [µM] | ΔTm F21T-K+ ([3]; 10 µM ligand) [°C] | EC50 [4] [µM] | ΔTm Febr1T-K+ ([5]; 10 µM ligand) [°C] | EC50 (MRC5 non-tumoral cells) [µM] | EC50 (L. major) [µM] | ΔTm F10T-K+ ([6]; 10 µM ligand) [°C] | ΔTm F21T-Na+ ([1]; 1 µM ligand) [°C] | ΔTm FmycT-K+ ([2]; 1 µM ligand) [°C] | ΔTm F21T-K+ ([3]; 1 µM ligand) [°C] | ΔTm Febr1T-K+ ([5]; 1 µM ligand) [°C] | ΔTm F10T-K+ ([6]; 1 µM ligand) [°C] | ΔTm F21T-Na+ ([1]; 5 μM ligand, 100 mM NaCl, 10 mM Li cacodylate) [°C] | ΔTm FmycT-K+ ([2]; 5 μM ligand, 1 mM KCl, 99 mM LiCl, 10 mM Li cacodylate) [°C] | ΔTm F21T-K+ [3, 7] [°C] | ΔTm Febr1T-K+ [5, 7] [°C] | ΔTm F10T-K+ [6, 7] [°C]
CN1CCN(CCCN2C(=O)c3ccc(Oc4ccc5c(c4)C(=O)N(CCCN4CCN(C)CC4)C5=O)cc3C2=O)CC1 [Compound 5] | -3 ± 1 | -3 ± 1 | 67 ± 18 | -3 ± 1 | > 100 | 1 ± 1 | > 100 | > 100 | 0 ± 1 | – | – | – | – | – | – | – | – | – | –
CN1CCN(CCCN2C(=O)c3ccc(C(c4ccc5c(c4)C(=O)N(CCCN4CCN(C)CC4)C5=O)(C(F)(F)F)C(F)(F)F)cc3C2=O)CC1 [Compound 6] | -8 ± 1 | -4 ± 1 | 36 ± 2 | -2 ± 1 | > 100 | 2 ± 1 | > 100 | > 100 | 0 ± 1 | – | – | – | – | – | – | – | – | – | –
CN1CCN(CCCN2C(=O)c3ccc(C(=O)c4ccc5c(c4)C(=O)N(CCCN4CCN(C)CC4)C5=O)cc3C2=O)CC1 [Compound 7] | -3 ± 2 | -3 ± 1 | 70 ± 13 | -3 ± 1 | > 100 | 1 ± 1 | > 100 | > 100 | 0 ± 1 | – | – | – | – | – | – | – | – | – | –
CN1CCN(CCCn2c(=O)c3cc4c(=O)n(CCCN5CCN(C)CC5)c(=O)c4cc3c2=O)CC1 [Compound 8] | 1 ± 1 | -2 ± 1 | 52 ± 7 | 1 ± 1 | > 100 | -2 ± 1 | > 100 | > 100 | 0 ± 1 | – | – | – | – | – | – | – | – | – | –
COc1cccc2c1C(=O)c1c(O)c3c(c(O)c1C2=O)C[C@@](O)(C(=O)CO)C[C@@H]3O[C@H]1C[C@H](N)[C@H](O)[C@H](C)O1 [Doxorubicin, reference compound] | – | – | – | – | 0.4 ± 0.05 | – | – | – | – | 0 ± 1 | 8 ± 1 | 10 ± 1 | 5 ± 1 | 2 ± 1 | – | – | – | – | –
CCCCCCCCCCCCCCCCOP(=O)([O-])OCC[N+](C)(C)C [Miltefosine, reference compound] | – | – | – | – | – | – | – | 5.8 ± 0.01 | – | – | – | – | – | – | – | – | – | – | –
O=C1c2ccc3c4ccc5c6c(ccc(c7ccc(c2c37)C(=O)N1CCN1CCCCC1)c64)C(=O)N(CCN1CCCCC1)C5=O [PIPER, reference compound] | 22 ± 1 | 26 ± 1 | – | > 40 | – | 38 ± 7 | – | – | – | – | 23 ± 1 | 33 ± 1 | 21 ± 4 | 0 ± 1 | 17±2 | 21±2 | 37±2 | 33±1 | 1±1
Cc1ccc(C(=O)Nc2ccc(S(=O)(=O)O)c3cc(S(=O)(=O)O)cc(S(=O)(=O)O)c23)cc1NC(=O)c1cccc(NC(=O)Nc2cccc(C(=O)Nc3cc(C(=O)Nc4ccc(S(=O)(=O)O)c5cc(S(=O)(=O)O)cc(S(=O)(=O)O)c45)ccc3C)c2)c1 [Suramin, reference compound] | – | – | 0.044 ± 0.006 | – | – | – | – | – | – | – | – | – | – | – | – | – | – | – | –
C[n+]1ccc(-c2c3nc(c(-c4cc[n+](C)cc4)c4ccc([nH]4)c(-c4cc[n+](C)cc4)c4ccc([nH]4)c(-c4cc[n+](C)cc4)c4nc2C=C4)C=C3)cc1 [TMPyP4, reference compound] | – | – | – | – | – | – | – | – | – | 31 ± 2 | 34 ± 1 | 33 ± 1 | 32 ± 2 | 9 ± 1 | – | – | – | – | –
